# Reference: patent US20250049972A1, “METHOD OF DETECTING PROSTATE CANCER IN A HUMAN SUBJECT USING A Cu 64 PSMA I&T INJECTION” (Curium US LLC, priority 2023, published 2025)
# Test: Phase 1 independent reader assessment of image quality (lesion evaluation and general) of 5, 7, 9 mCi scans
# Format: in vivo, human
# Details: for Lesion evaluation Image Quality Score (Mean [SD]) / Number of Lesions visible: 4-hour scans
# Procedure: The Phase 1 portion of the study included a total of 12 patients with biochemical, recurrent PC after prostatectomy or radiation therapy. Patients were randomized into 3 groups of 4 patients. Patients in a given group received a single intravenous dose of 5, 7, or 9 mCi (±10%) of copper Cu-64 PSMA I&T. Whole-body PET/CT images were acquired at 1 hour (±15 minutes), 4 hours (±30 minutes), and 24 hours (±2.0 hours) post injection.
# The 1-hour and 4-hour PET/CT images were evaluated independently by 3 readers blinded to all patient information, dose administration, and times of acquisition to assess the quality of the images (24 PET/CT image sets total). In addition, readers performed all assessments in one sitting with images scrambled such that the 1- and 4-hour imaging from the same patient was […]. The imaging protocol, scanner qualification, and imaging time/bed position were identical at 1, 4 and 24 hours and kept constant regardless of dose. The assessments were used together with dose reduction modeling to determine an acceptable dose to be administered for the Phase 2 portion of the study defined as the lowest copper Cu-64 PSMA I&T dose that yielded the most clinically relevant diagnostic image quality based on expert consensus review of all measurements and overall image quality.
smiles,measurement,setting,value
"O=C(O)CC[C@H](NC(=O)N[C@@H](CCCCNC(=O)CCCCCCC(=O)NCCCC[C@@H](NC(=O)[C@@H](Cc1ccccc1)NC(=O)[C@@H](Cc1ccc(O)c(I)c1)NC(=O)CC[C@H](C(=O)O)N1CCN(CC(=O)O)CCN(CC(=O)O)CCN(CC(=O)O)CC1)C(=O)O)C(=O)O)C(=O)O [Cu-64 PSMA I&T, 64 Cu-(3S, 7S, 26R, 29R, 32R, 37R)-29-benzyl-32(4-hydroxy-3-iodobenzyl)-5, 13, 20, 28, 31, 34-hexaoxo-37-(4,7,10-tris(carboxymethyl)-1,4,7, 10-tetraazacyclododecan-1-yl)-4,6, 12, 21, 27, 30, 33-heptaazaheptatriacontane-1,3,7, 26, 37-pentacarboxylic acid, metal not drawn]",Average general image quality across timepoints,5 mCi (n = 4),1.63 (0.58)
same,Average general image quality across timepoints,7 mCi (n = 4),1.58 (0.58)
same,Average general image quality across timepoints,9 mCi,1.71 (0.46)
same,Lesion evaluation Image Quality Score (Mean [SD]),"Reader 1, 5 mCi",2.00 (0.00)
same,Number of Lesions visible,"Reader 1, 5 mCi",19
same,Lesion evaluation Image Quality Score (Mean [SD]),"Reader 1, 7 mCi",2.00 (0.00)
same,Number of Lesions visible,"Reader 1, 7 mCi",15
same,Lesion evaluation Image Quality Score (Mean [SD]),"Reader 1, 9 mCi",2.00 (0.00)
same,Number of Lesions visible,"Reader 1, 9 mCi",12
same,General Image Quality score (Mean [SD]),"Reader 1, 1 hour, 5 mCi (n = 4)",2.00 (0.00)
same,General Image Quality score (Mean [SD]),"Reader 1, 1 hour, 7 mCi (n = 4)",2.00 (0.00)
same,General Image Quality score (Mean [SD]),"Reader 1, 1 hour, 9 mCi",1.75 (0.50)
same,General Image Quality score (Mean [SD]),"Reader 1, 4 hours, 5 mCi (n = 4)",1.75 (0.50)
same,General Image Quality score (Mean [SD]),"Reader 1, 4 hours, 7 mCi (n = 4)",2.00 (0.00)
same,General Image Quality score (Mean [SD]),"Reader 1, 4 hours, 9 mCi",1.75 (0.50)
same,Lesion evaluation Image Quality Score (Mean [SD]),"Reader 2, 5 mCi",2.00 (0.00)
same,Number of Lesions visible,"Reader 2, 5 mCi",17
same,Lesion evaluation Image Quality Score (Mean [SD]),"Reader 2, 7 mCi",1.77 (0.44)
same,Number of Lesions visible,"Reader 2, 7 mCi",13
same,Lesion evaluation Image Quality Score (Mean [SD]),"Reader 2, 9 mCi",2.00 (0.00)
same,Number of Lesions visible,"Reader 2, 9 mCi",13
same,General Image Quality score (Mean [SD]),"Reader 2, 1 hour, 5 mCi (n = 4)",2.00 (0.00)
same,General Image Quality score (Mean [SD]),"Reader 2, 1 hour, 7 mCi (n = 4)",1.00 (0.82)
same,General Image Quality score (Mean [SD]),"Reader 2, 1 hour, 9 mCi",1.75 (0.50)
same,General Image Quality score (Mean [SD]),"Reader 2, 4 hours, 5 mCi (n = 4)",2.00 (0.00)
same,General Image Quality score (Mean [SD]),"Reader 2, 4 hours, 7 mCi (n = 4)",1.50 (0.58)
same,General Image Quality score (Mean [SD]),"Reader 2, 4 hours, 9 mCi",2.00 (0.00)
same,Number of Lesions visible,"Reader 3, 5 mCi",19
same,Number of Lesions visible,"Reader 3, 7 mCi",12
same,Lesion evaluation Image Quality Score (Mean [SD]),"Reader 3, 9 mCi",1.85 (0.38)
same,Number of Lesions visible,"Reader 3, 9 mCi",13
same,General Image Quality score (Mean [SD]),"Reader 3, 1 hour, 5 mCi (n = 4)",1.00 (0.00)
same,General Image Quality score (Mean [SD]),"Reader 3, 1 hour, 7 mCi (n = 4)",1.25 (0.50)
same,General Image Quality score (Mean [SD]),"Reader 3, 1 hour, 9 mCi",1.50 (0.58)
same,General Image Quality score (Mean [SD]),"Reader 3, 4 hours, 5 mCi (n = 4)",1.00 (0.82)
same,General Image Quality score (Mean [SD]),"Reader 3, 4 hours, 7 mCi (n = 4)",1.75 (0.50)
same,General Image Quality score (Mean [SD]),"Reader 3, 4 hours, 9 mCi",1.50 (0.58)
same,"QIQS (general image quality), lowest score","at 4 hours, 5, 7 and 9 mCi, all readers",≥ 1.00
